Measured values published in PubChem BioAssay (NCI).
“And” between values parts separate entries of the source, which are not always exact repeats. Equal entries are not always repeated.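 Exposure lasted 48 hours, with cells grown in 96-well plates and compounds tested at five concentrations. Abbreviation: GI50, concentration required for 50% inhibition of growth. Definition used: TGI = concentration required for complete inhibition of growth.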

How the values were obtained:
Test in all cases: DTP human tumour cell line panel, 48 h
[1] = tested on: MDA-N
[2] = tested on: DU-145 prostate
[3] = tested on: HOP-92 NSCLC
[4] = tested on: PC-3 prostate
[5] = tested on: NCI-H226 lung
[6] = tested on: UO-31 renal
[7] = tested on: SF-268 CNS
[8] = tested on: HCT-116 colon
[9] = tested on: SK-MEL-2 melanoma
[10] = tested on: 786-0 renal
[11] = tested on: HOP-62 NSCLC
[12] = tested on: OVCAR-5 ovarian
[13] = tested on: SN12C renal
[14] = tested on: OVCAR-8 ovarian
[15] = tested on: A549 NSCLC
[16] = tested on: BT-549 breast
[17] = tested on: HCT-15 colon
[18] = tested on: CAKI-1 renal
[19] = tested on: NCI-H23 lung
[20] = tested on: SR leukemia
[21] = tested on: SF-295 CNS
[22] = tested on: M14 melanoma
[23] = tested on: EKVX NSCLC
[24] = tested on: MALME-3M melanoma
[25] = tested on: K-562 leukemia
[26] = tested on: NCI/ADR-RES ovarian
[27] = tested on: MDA-MB-231 breast
[28] = tested on: NCI-H460 lung
[29] = tested on: UACC-257 melanoma
[30] = tested on: OVCAR-3 ovarian
[31] = tested on: MDA-MB-435
[32] = tested on: MCF7 breast
[33] = tested on: OVCAR-4 ovarian
[34] = tested on: TK-10 renal
[35] = tested on: LOX IMVI melanoma
[36] = tested on: RXF 393 renal
[37] = tested on: HCC-2998 colon
[38] = tested on: ACHN renal
[39] = tested on: HL-60(TB) leukemia
[40] = tested on: U251 CNS
[41] = tested on: NCI-H522 lung
[42] = tested on: SW-620 colon
[43] = tested on: MOLT-4 leukemia
[44] = tested on: T-47D breast
[45] = tested on: RPMI-8226 leukemia
[46] = tested on: CCRF-CEM leukemia
[47] = tested on: SNB-19 CNS
[48] = tested on: KM12 colon
[49] = tested on: HT29 colon
[50] = tested on: COLO 205 colon
[51] = tested on: SNB-75 CNS
[52] = tested on: HS 578T breast
[53] = tested on: IGROV1 ovarian
[54] = tested on: SK-MEL-5 melanoma
[55] = tested on: SF-539 CNS
[56] = tested on: A498 renal
[57] = tested on: SK-OV-3 ovarian
[58] = tested on: UACC-62 melanoma
[59] = tested on: SK-MEL-28 melanoma

CO/C(=N\N=C\c1cccc(Cl)c1)c1ccncc1
TGI [1]: > 10000 nM
TGI [2]: > 10000 nM
TGI [3]: > 10000 nM
TGI [4]: > 10000 nM
TGI [5]: > 10000 nM
TGI [6]: > 10000 nM
TGI [7]: > 10000 nM
TGI [8]: > 10000 nM
TGI [9]: > 10000 nM
TGI [10]: > 10000 nM
TGI [11]: > 10000 nM
TGI [12]: > 10000 nM
TGI [13]: > 10000 nM
TGI [14]: > 10000 nM
TGI [15]: > 10000 nM
TGI [16]: > 10000 nM
TGI [17]: > 10000 nM
TGI [18]: > 10000 nM
TGI [19]: > 10000 nM
TGI [20]: > 10000 nM
TGI [21]: > 10000 nM
TGI [22]: > 10000 nM
TGI [23]: > 10000 nM
TGI [24]: > 10000 nM
TGI [25]: > 10000 nM
TGI [26]: > 10000 nM
TGI [27]: > 10000 nM
TGI [28]: > 10000 nM
TGI [29]: > 10000 nM
TGI [30]: > 10000 nM
TGI [31]: > 10000 nM
TGI [32]: > 10000 nM
TGI [33]: > 10000 nM
TGI [34]: > 10000 nM
TGI [35]: > 10000 nM
TGI [36]: > 10000 nM
TGI [37]: > 10000 nM
TGI [38]: > 10000 nM
TGI [39]: > 10000 nM
TGI [40]: > 10000 nM
TGI [41]: > 10000 nM
TGI [42]: > 10000 nM
TGI [43]: > 10000 nM
TGI [44]: > 10000 nM
TGI [45]: > 10000 nM
TGI [46]: > 10000 nM
TGI [47]: > 10000 nM
TGI [48]: > 10000 nM
TGI [49]: > 10000 nM
TGI [50]: > 10000 nM

CC(CN(C)C)Nc1c2ccccc2nc2cccc([N+](=O)[O-])c12 (stereo unspecified)
TGI [1]: 748 nM
GI50 [2]: 74.7 nM and < 21.9 nM
TGI [2]: 11900 nM
GI50 [3]: 226 nM and 25.8 nM
GI50 [51]: 342 nM and 43.1 nM
TGI [51]: 1590 nM and 268 nM
GI50 [6]: 188 nM and < 23.7 nM
TGI [6]: 457 nM and 887 nM
GI50 [8]: 26 nM and < 10 nM
GI50 [11]: 120 nM and < 13 nM
GI50 [52]: < 10 nM
TGI [52]: < 10 nM
GI50 [16]: 540 nM
TGI [16]: 1900 nM
GI50 [21]: 96.8 nM and < 10 nM
TGI [25]: 764 nM
TGI [27]: 2640 nM
GI50 [28]: 24.8 nM and < 11.1 nM
TGI [28]: 206 nM and 711 nM
TGI [53]: 10100 nM
GI50 [54]: 71.5 nM and < 10 nM
TGI [32]: 636 nM
TGI [33]: 610 nM and 5210 nM
TGI [36]: 14900 nM
GI50 [55]: 337 nM and < 37.8 nM
TGI [55]: 1310 nM
GI50 [39]: 18.2 nM
TGI [41]: 111 nM
GI50 [42]: 306 nM
TGI [42]: 11800 nM
TGI [46]: 2870 nM
TGI [49]: 1020 nM and 413 nM

CC1(C)CC[C@H](Nc2ncc(C(F)(F)F)c(-c3c[nH]c4c(P(C)(C)=O)c(C#N)ccc34)n2)CN1
GI50 [2]: 520 nM
TGI [2]: > 36400 nM
GI50 [3]: 345 nM
TGI [3]: 28800 nM
GI50 [4]: 39.6 nM
TGI [4]: 43300 nM
GI50 [5]: 165 nM
TGI [5]: 6780 nM
GI50 [51]: 774 nM
TGI [51]: 10600 nM
GI50 [6]: 377 nM
TGI [6]: 5110 nM
GI50 [7]: 1170 nM
TGI [7]: 12900 nM
GI50 [8]: < 10 nM
TGI [8]: 12100 nM
GI50 [9]: 283 nM
TGI [9]: 6900 nM
GI50 [56]: 1760 nM
TGI [56]: 8850 nM
GI50 [10]: 201 nM
TGI [10]: 19200 nM
GI50 [11]: 13.2 nM
TGI [11]: 6690 nM
GI50 [52]: 736 nM
TGI [52]: 10600 nM
GI50 [12]: 144 nM
TGI [12]: > 37700 nM
GI50 [13]: 141 nM
TGI [13]: 32200 nM
GI50 [14]: 469 nM
TGI [14]: > 50200 nM
GI50 [15]: 184 nM
TGI [15]: 35400 nM
GI50 [16]: 75.8 nM
TGI [16]: 3670 nM
GI50 [17]: 210 nM
TGI [17]: 15100 nM
GI50 [18]: 36.1 nM
TGI [18]: > 37600 nM
GI50 [19]: < 10 nM
TGI [19]: 3440 nM
GI50 [20]: < 10 nM
GI50 [21]: 26.7 nM
TGI [21]: 13500 nM
GI50 [57]: 1070 nM
TGI [57]: 5460 nM
GI50 [22]: 75.9 nM
TGI [22]: 6690 nM
GI50 [23]: < 11.3 nM
TGI [23]: 9270 nM
GI50 [24]: < 12.8 nM
TGI [24]: 13000 nM
GI50 [25]: 21.9 nM
TGI [25]: > 45900 nM
GI50 [26]: 3180 nM
TGI [26]: 27600 nM
GI50 [27]: 400 nM
TGI [27]: 9080 nM
GI50 [28]: < 10 nM
TGI [28]: 11500 nM
GI50 [53]: 23.1 nM
TGI [53]: 14500 nM
GI50 [29]: < 10 nM
TGI [29]: 6830 nM
GI50 [30]: < 21.4 nM
TGI [30]: 4290 nM
GI50 [31]: 38 nM
TGI [31]: 12000 nM
GI50 [54]: 66.6 nM
TGI [54]: 2270 nM
GI50 [32]: < 13.7 nM
TGI [32]: 10200 nM
GI50 [33]: 365 nM
TGI [33]: 6890 nM
GI50 [34]: 711 nM
TGI [34]: > 53900 nM
GI50 [35]: 29.7 nM
TGI [35]: 7440 nM
GI50 [36]: 777 nM
TGI [36]: 4000 nM
GI50 [58]: < 10 nM
TGI [58]: 2190 nM
GI50 [55]: 245 nM
TGI [55]: 4730 nM
GI50 [37]: 37.5 nM
TGI [37]: 11600 nM
GI50 [59]: < 10 nM
TGI [59]: 9200 nM
GI50 [38]: 72.1 nM
TGI [38]: 9270 nM
GI50 [39]: < 10 nM
TGI [39]: 2370 nM
GI50 [40]: 77.1 nM
TGI [40]: 23700 nM
TGI [41]: 14400 nM
GI50 [42]: 22.5 nM
TGI [42]: 13200 nM
GI50 [43]: 214 nM
TGI [43]: > 23200 nM
GI50 [44]: 25.5 nM
TGI [44]: 5840 nM
GI50 [45]: < 10 nM
TGI [45]: 3430 nM
GI50 [46]: 143 nM
TGI [46]: > 32000 nM
GI50 [47]: 43.9 nM
TGI [47]: > 54300 nM
GI50 [48]: 190 nM
TGI [48]: 13200 nM
GI50 [49]: < 25.9 nM
TGI [49]: > 27700 nM
GI50 [50]: < 10 nM
TGI [50]: 773 nM
